Results on three compounds are retold here after patent US20050175567A1, “Hair care compositions containing phenolic styling agents” (priority 2002, published 2005).

This assay can be described thus: Curl dropout of treated hair curls in high humidity chamber. The conditions noted are these: 1% by weight solution in water; curls soaked 1 hour, rinsed, dried 30 minutes; 90% RH, 30° C., fan agitation, 1 minute. On the procedure: Three solutions were formulated each containing 1% by weight of either 2,5 dihydroxybenzoic acid, 3,4 dihydroxybenzoic acid or 3,5 dihydroxybenzoic acid. Hair curls were made up using perming rods and 30 cm length hair.
The curls were placed in the solution for 1 hour, rinsed thoroughly with distilled water and dried for 30 minutes. The hair was removed from the curling rod and the length of the curl measured.
The hair was hung in high humidity environmental chamber (90% RH, 30° C.) with fan agitation for 1 minute and measured again.
`O=C(O)c1cc(O)ccc1O` [2,5 dihydroxybenzoic acid]: the Curl dropout % worked out at 17.1%.

With `O=C(O)c1ccc(O)c(O)c1` [3,4 dihydroxybenzoic acid], the Curl dropout % is 29%.

As to `O=C(O)c1cc(O)cc(O)c1` [3,5 dihydroxybenzoic acid], the Curl dropout % turned out to be 26%.
